Like-named read-outs stand apart in the source and are kept apart here. Starred links: 1 amine or outer side, 2 acyl side, 3 side chain; linkers in the order of their positions; H or OH if unused. Non-standard residues stand in square brackets, D forms with d. Residues, ends and D or L forms follow the SMILES beside them. Groups on a side chain read outwards from the residue. *: point of attachment. C18 diacid = O=C(O)CCCCCCCCCCCCCCCCC(=O)*; αMePhe(2-F) = C[C@](N)(Cc1ccccc1F)C(=O)O; γGlu = O=C(O)[C@H](CCC(=O)[*:2])N[*:1]; αMe4Pal = C[C@](N)(Cc1ccncc1)C(=O)O; αMeY = C[C@](N)(Cc1ccc(O)cc1)C(=O)O; 4Pal = N[C@@H](Cc1ccncc1)C(=O)O; αMeL = CC(C)C[C@](C)(N)C(=O)O; αMeS = C[C@](N)(CO)C(=O)O; Orn = NCCC[C@H](N)C(=O)O; AEEA = NCCOCCOCC(=O)O; Aib = CC(C)(N)C(=O)O
Legend:
Type in all cases: cell-based
hGLP-1R [1] = target: T1, hGLP-1R (Homo sapiens, UniProt P43220); experiment: Functional cAMP activation in the presence of 0.1% casein (no HSA); details: read-out: Relative cAMP EC50, hGLP-1R;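 also: intracellular cAMP rise after 30 min at 37 °C read by HTRF, normalized between buffer only (0%) and maximal control ligand (100%), four-parameter variable-slope fit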
human GcgR = human GcgR (Homo sapiens, UniProt P47871); experiment: Functional cAMP activity in the presence of 1% HSA; details: read-out: cAMP Rel EC50, hGcgR
hGcgR = hGcgR (Homo sapiens, UniProt P47871); experiment: Functional cAMP activation in the presence of 0.1% casein (no HSA); details: read-out: Relative cAMP EC50, hGcgR;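 also: intracellular cAMP rise after 30 min at 37 °C, read by HTRF against a cAMP standard curve, scaled from buffer only (0%) to maximal control ligand response (100%)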
hGIPR [2] = target: T2, hGIPR (Homo sapiens, UniProt P48546); experiment: Functional cAMP activity in the presence of 1% HSA; details: read-out: cAMP Rel EC50, hGIPR
T2 sequence (P48546 22-466): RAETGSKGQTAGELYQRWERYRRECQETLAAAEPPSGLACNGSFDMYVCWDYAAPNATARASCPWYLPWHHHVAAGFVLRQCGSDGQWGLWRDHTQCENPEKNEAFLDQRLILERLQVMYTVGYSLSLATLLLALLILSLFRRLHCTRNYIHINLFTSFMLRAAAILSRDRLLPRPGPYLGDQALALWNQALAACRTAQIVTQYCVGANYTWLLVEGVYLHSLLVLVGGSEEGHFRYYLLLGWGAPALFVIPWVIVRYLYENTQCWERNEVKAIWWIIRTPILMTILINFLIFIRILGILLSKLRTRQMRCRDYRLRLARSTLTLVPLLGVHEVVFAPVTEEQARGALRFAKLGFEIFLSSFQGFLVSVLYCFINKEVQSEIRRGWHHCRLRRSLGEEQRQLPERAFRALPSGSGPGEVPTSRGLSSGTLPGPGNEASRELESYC

hGIPR [3] = target: T2, hGIPR; experiment: Functional cAMP activation in the presence of 0.1% casein (no HSA); details: read-out: Relative cAMP EC50, hGIPR;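 also: intracellular cAMP rise after 30 min at 37 °C read by HTRF against a standard curve, scaled between buffer alone (0%) and top control ligand concentration (100%), four-parameter fit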
hGLP-1R [4] = target: T1, hGLP-1R; experiment: Functional cAMP activity in the presence of 1% HSA; details: read-out: cAMP Rel EC50, hGLP-1R
[5] = in the presence of 0.1% casein (no HSA), geometric mean

T1 sequence (P43220 24-463): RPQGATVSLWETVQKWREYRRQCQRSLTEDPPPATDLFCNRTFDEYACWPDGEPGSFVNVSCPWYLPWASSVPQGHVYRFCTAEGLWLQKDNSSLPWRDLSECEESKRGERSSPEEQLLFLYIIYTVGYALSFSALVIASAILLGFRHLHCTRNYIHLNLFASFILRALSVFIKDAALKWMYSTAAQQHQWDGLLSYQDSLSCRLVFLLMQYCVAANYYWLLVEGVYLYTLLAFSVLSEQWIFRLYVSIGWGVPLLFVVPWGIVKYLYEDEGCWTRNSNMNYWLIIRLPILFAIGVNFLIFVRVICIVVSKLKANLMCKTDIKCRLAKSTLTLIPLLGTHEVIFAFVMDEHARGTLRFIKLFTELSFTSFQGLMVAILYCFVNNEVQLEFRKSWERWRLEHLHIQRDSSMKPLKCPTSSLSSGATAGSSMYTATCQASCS
hGcgR, sequence (P47871 26-477): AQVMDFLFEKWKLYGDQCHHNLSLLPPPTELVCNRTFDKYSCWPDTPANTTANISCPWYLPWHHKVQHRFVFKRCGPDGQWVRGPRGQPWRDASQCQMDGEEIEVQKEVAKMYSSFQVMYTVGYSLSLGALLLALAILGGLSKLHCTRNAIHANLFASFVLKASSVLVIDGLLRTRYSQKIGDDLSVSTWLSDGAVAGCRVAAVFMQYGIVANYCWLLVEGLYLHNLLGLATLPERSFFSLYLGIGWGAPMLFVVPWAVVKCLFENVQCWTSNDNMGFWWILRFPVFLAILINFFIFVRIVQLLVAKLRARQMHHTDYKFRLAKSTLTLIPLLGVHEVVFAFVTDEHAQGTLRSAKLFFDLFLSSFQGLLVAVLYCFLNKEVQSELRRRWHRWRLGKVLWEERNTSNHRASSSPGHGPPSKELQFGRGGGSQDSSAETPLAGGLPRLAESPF
human GcgR, sequence (P47871 26-477): as above

Compound | EC50 (hGLP-1R [1]; [5]) [nM] | EC50 (human GcgR) [nM] | EC50 (hGcgR; [5]) [nM] | EC50 (hGIPR [2]) [nM] | EC50 (hGIPR [3]; [5]) [nM] | EC50 (hGLP-1R [4]) [nM] | EC50 (hGLP-1R [1]) [nM] | EC50 (hGcgR) [nM] | EC50 (hGIPR [3]) [nM]
CC[C@H](C)[C@H](NC(=O)[C@H](Cc1ccccc1)NC(=O)[C@H](C)NC(=O)C(C)(C)NC(=O)[C@H](CCC(N)=O)NC(=O)[C@H](C)NC(=O)[C@H](CCCCNC(=O)COCCOCCNC(=O)CC[C@H](NC(=O)CCCCCCCCCCCCCCCCCCC(=O)O)C(=O)O)NC(=O)[C@H](CCCCN)NC(=O)[C@H](CC(=O)O)NC(=O)[C@H](CC(C)C)NC(=O)[C@](C)(CC(C)C)NC(=O)[C@H](CCCN)NC(=O)[C@H](CO)NC(=O)[C@H](Cc1ccccc1)NC(=O)[C@H](CC(=O)O)NC(=O)[C@H](CO)NC(=O)[C@@H](NC(=O)[C@H](Cc1ccccc1)NC(=O)[C@@H](NC(=O)CNC(=O)[C@H](CCC(N)=O)NC(=O)C(C)(C)NC(=O)[C@@H](N)Cc1ccc(O)cc1)[C@@H](C)O)[C@@H](C)O)C(=O)N[C@@H](CCC(=O)O)C(=O)N[C@@H](Cc1c[nH]c2ccccc12)C(=O)N[C@@H](CC(C)C)C(=O)N[C@@H](CC(C)C)C(=O)N[C@@H](CCC(=O)O)C(=O)NCC(=O)NCC(=O)N1CCC[C@H]1C(=O)N[C@@H](CO)C(=O)N[C@@H](CO)C(=O)NCC(=O)N[C@@H](C)C(=O)N1CCC[C@H]1C(=O)N1CCC[C@H]1C(=O)N1CCC[C@H]1C(=O)N[C@@H](CO)C(=O)NCC(=O)N[C@@H](CCC(=O)O)C(N)=O [Example 100] | 3.21 | 2390 | 13.1 | 77.2 | 0.293 | 1190 | – | – | –
H-Y[Aib]QGT[αMePhe(2-F)]TSD[4Pal]SILLD[Orn]K([γGlu-γGlu-C18 diacid])AQ[Aib]AFIEYLEEGGPSSGAPPPSGTE-NH2 [Example 513] | – | 1440 | – | 10.3 | – | 78.2 | 0.634 | 9.58 | 0.0956
CC[C@H](C)[C@H](NC(=O)[C@H](CC(C)C)NC(=O)[C@H](Cc1ccc(O)cc1)NC(=O)[C@H](CCC(=O)O)NC(=O)[C@@H](NC(=O)[C@H](Cc1ccccc1)NC(=O)[C@H](C)NC(=O)[C@](C)(Cc1ccncc1)NC(=O)[C@H](CCC(N)=O)NC(=O)[C@H](C)NC(=O)[C@H](CCCCNC(=O)CC[C@H](NC(=O)CC[C@H](NC(=O)CCCCCCCCCCCCCCCCC(=O)O)C(=O)O)C(=O)O)NC(=O)[C@H](CCCCN)NC(=O)[C@H](CC(=O)O)NC(=O)[C@H](CC(C)C)NC(=O)[C@](C)(CC(C)C)NC(=O)[C@H](CCC(N)=O)NC(=O)[C@H](CO)NC(=O)[C@H](Cc1ccncc1)NC(=O)[C@H](CC(=O)O)NC(=O)[C@H](CO)NC(=O)[C@@H](NC(=O)[C@H](Cc1ccccc1)NC(=O)[C@@H](NC(=O)CNC(=O)[C@H](CCC(N)=O)NC(=O)C(C)(C)NC(=O)[C@@H](N)Cc1ccc(O)cc1)[C@@H](C)O)[C@@H](C)O)[C@@H](C)CC)C(=O)N[C@@H](C)C(=O)NCC(=O)NCC(=O)N1CCC[C@H]1C(=O)N[C@@H](CO)C(=O)N[C@@H](CO)C(=O)NCC(=O)N[C@@H](C)C(=O)N1CCC[C@H]1C(=O)N1CCC[C@H]1C(=O)N1CCC[C@H]1C(=O)N[C@@H](CO)C(=O)NCC(=O)N[C@@H](CO)C(N)=O [Example 870] | 0.962 | 736 | 4.4 | 7.29 | 0.0698 | 71.2 | – | – | –
H-Y[Aib]QGTFTSDFS[Orn][αMeL]LDKK([AEEA-γGlu-C18 diacid])AQ[Aib]AFIEYLLAGGPSSGAPPPSGS[AEEA]-NH2 [Example 89] | 3.31 | 916 | 11.6 | 19.3 | 0.167 | 458 | – | – | –
H-Y[Aib]QGTFTSDFSK[αMeL]LDKK([AEEA-γGlu-C18 diacid])AQ[Aib]AFIE[αMe4Pal]LIE[Aib]GPSSGAPPPSGS-NH2 [Example 912] | 0.414 | 955 | 3.76 | 6.15 | 0.0387 | 59.6 | – | – | –
H-Y[Aib]QGTFTSDFS[Orn][αMeL]LDKK([AEEA-γGlu-C18 diacid])AQ[Aib]AFIEWLLEGGSSSGAPPPSGH-NH2 [Example 270] | 3.2 | 1060 | 5 | 36.5 | 0.26 | 658 | – | – | –
CC[C@H](C)[C@H](NC(=O)[C@H](Cc1ccccc1)NC(=O)[C@H](C)NC(=O)C(C)(C)NC(=O)[C@H](CCC(N)=O)NC(=O)[C@H](C)NC(=O)[C@H](CCCCNC(=O)COCCOCCNC(=O)CC[C@H](NC(=O)CCCCCCCCCCCCCCCCC(=O)O)C(=O)O)NC(=O)[C@H](CCCCN)NC(=O)[C@H](CC(=O)O)NC(=O)[C@H](CC(C)C)NC(=O)[C@](C)(CC(C)C)NC(=O)[C@@H](NC(=O)[C@H](CO)NC(=O)[C@H](Cc1ccncc1)NC(=O)[C@H](CC(=O)O)NC(=O)[C@H](CO)NC(=O)[C@@H](NC(=O)[C@](C)(Cc1ccccc1F)NC(=O)[C@@H](NC(=O)CNC(=O)[C@H](CCC(N)=O)NC(=O)C(C)(C)NC(=O)[C@@H](N)Cc1ccc(O)cc1)[C@@H](C)O)[C@@H](C)O)[C@@H](C)CC)C(=O)N[C@@H](CCC(=O)O)C(=O)N[C@@H](Cc1ccc(O)cc1)C(=O)N[C@@H](CC(C)C)C(=O)N[C@@H](CCC(=O)O)C(=O)N[C@@H](CCC(=O)O)C(=O)NCC(=O)NCC(=O)N1CCC[C@H]1C(=O)N[C@@H](CO)C(=O)N[C@@H](CO)C(=O)NCC(=O)N[C@@H](C)C(=O)N1CCC[C@H]1C(=O)N[C@@H](CCC(=O)O)C(=O)N1CCC[C@H]1C(=O)N[C@@H](CO)C(N)=O [Example 443] (H-Y[Aib]QGT[αMePhe(2-F)]TSD[4Pal]SI[αMeL]LDKK([AEEA-γGlu-C18 diacid])AQ[Aib]AFIEYLEEGGPSSGAPEPS-NH2) | – | 265 | – | 1.57 | – | 34.3 | 0.572 | 6.09 | 0.0291
H-Y[Aib]QGT[αMePhe(2-F)]TSD[4Pal][αMeS]I[αMeL]LD[Orn]K([AEEA-γGlu-C18 diacid])AQ[αMe4Pal]EFI[dE][αMeY]LVEGGPSSGAPPPEGE-NH2 [Example 1158] | 0.419 | 301 | 2.19 | 1.42 | 0.0126 | 46.8 | – | – | –
H-Y[Aib]QGTFTSD[4Pal]S[Orn][αMeL]LDKK([γGlu-γGlu-C18 diacid])AQ[αMe4Pal]AFIEYLIAGGPSSGEPPPSGTEEE-NH2 [Example 982] | 4.94 | 307 | 3.91 | 19.4 | 0.328 | 310 | – | – | –
CC[C@H](C)[C@H](NC(=O)[C@H](Cc1ccccc1)NC(=O)[C@H](CCCN)NC(=O)C(C)(C)NC(=O)[C@H](CCC(N)=O)NC(=O)[C@H](C)NC(=O)[C@H](CCCCNC(=O)CC[C@H](NC(=O)CC[C@H](NC(=O)CCCCCCCCCCCCCCCCC(=O)O)C(=O)O)C(=O)O)NC(=O)[C@H](CCCN)NC(=O)[C@H](CC(=O)O)NC(=O)[C@H](CC(C)C)NC(=O)[C@](C)(CC(C)C)NC(=O)[C@@H](NC(=O)[C@](C)(CO)NC(=O)[C@H](Cc1ccncc1)NC(=O)[C@H](CC(=O)O)NC(=O)[C@H](CO)NC(=O)[C@@H](NC(=O)[C@](C)(Cc1ccccc1F)NC(=O)[C@@H](NC(=O)CNC(=O)[C@H](CCC(N)=O)NC(=O)C(C)(C)NC(=O)[C@@H](N)Cc1ccc(O)cc1)[C@@H](C)O)[C@@H](C)O)[C@@H](C)CC)C(=O)N[C@H](CCC(=O)O)C(=O)N[C@@](C)(Cc1ccc(O)cc1)C(=O)N[C@@H](CC(C)C)C(=O)N[C@@H](C)C(=O)N[C@@H](CCC(=O)O)C(=O)NCC(=O)NCC(=O)N1CCC[C@H]1C(=O)N[C@@H](CO)C(=O)N[C@@H](CO)C(=O)NCC(=O)N[C@@H](CCC(=O)O)C(=O)N1CCC[C@H]1C(=O)N1CCC[C@H]1C(=O)N1CCC[C@H]1C(=O)N[C@@H](CCC(=O)O)C(N)=O [Example 437] (H-Y[Aib]QGT[αMePhe(2-F)]TSD[4Pal][αMeS]I[αMeL]LD[Orn]K([γGlu-γGlu-C18 diacid])AQ[Aib][Orn]FI[dE][αMeY]LAEGGPSSGEPPPE-NH2) | – | 188 | – | 16.9 | – | 26.9 | 0.421 | 1.76 | 0.0872
H-Y[Aib]QGTFTSD[4Pal]SQ[αMeL]LDKK([γGlu-γGlu-C18 diacid])AQ[αMe4Pal]AFIE[αMe4Pal]LIE[Aib]GPSSGAPPPSGTGE-NH2 [Example 1119] | 3.57 | 237 | 7.61 | 3.95 | 0.0939 | 152 | – | – | –
H-Y[Aib]QGT[αMePhe(2-F)]TSD[4Pal]SILLDKK([γGlu-γGlu-C18 diacid])AQ[Aib]AFIEWLEEGGPSSGAPPPSGTE-NH2 [Example 549] | – | 655 | – | 3.67 | – | 76.2 | 0.395 | 3.41 | 0.0255
H-Y[Aib]QGTFTSDFS[Orn][αMeL]LDKK([AEEA-γGlu-C18 diacid])AQ[Aib]AFIEYLLEGGPSSGAPPPGGSG-NH2 [Example 64] | 4.08 | 626 | 4.94 | 24.9 | 0.309 | 397 | – | – | –

Source: US20240270821A1, “GIP/GLP1/GCG TRI-RECEPTOR AGONISTS AND USES THEREOF” (priority 2023, published 2024)
